Activity calls are given as the source filed them.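 The calls were made as follows: active = wells where survival under tumor necrosis factor attack stays above 50% of untreated control at 25 µM; inactive = the rest.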
Tested on: CSM14.1 TNF/CHX-induced death, ATPlite luminescence, 24 h
Test: protection against TNF-triggered CSM14.1 death, SAR follow-up, selectivity assay for ER stress death inhibitor project, cell-based, undifferentiated CSM14.1, ATP luminescence (AID 1350)
Conditions: at 25 µM; hits give high values

| Structure (SMILES) | survival |
| --- | --- |
| COc1ccc(C2CC(=O)C3=C(C2)Nc2ccccc2NC3c2cc(C)ccc2C)cc1 (stereo unspecified) | 39% (inactive) |
| COc1ccc(C2CC(=O)C3=C(C2)Nc2ccccc2NC3c2ccccc2C(F)(F)F)cc1OC (stereo unspecified) | 37% (inactive) |
| COc1ccc(C2CC(=O)C3=C(C2)Nc2ccccc2NC3c2cccc(Br)c2)cc1OC (stereo unspecified) | 38% (inactive) |
| CC1(C)CC(=O)C2=C(C1)Nc1ccccc1NC2c1ccc(-c2ccccc2)cc1 (stereo unspecified) | 46% (inactive) |
| CCCOc1ccc(C2Nc3ccccc3NC3=C2C(=O)CC(c2ccc(OC)c(OC)c2)C3)cc1 (stereo unspecified) | 45% (inactive) |
| CCOc1cc(C2Nc3ccccc3NC3=C2C(=O)CC(c2ccc(OC)cc2)C3)cc(Cl)c1O (stereo unspecified) | 33% (inactive) |
| O=C1CC(c2ccccc2)CC2=C1C(c1c(F)cccc1Cl)Nc1ccccc1N2 (stereo unspecified) | 32% (inactive) |
| CSc1ccc(C2Nc3ccccc3NC3=C2C(=O)CC(c2ccccc2)C3)cc1 (stereo unspecified) | 43% (inactive) |
| COc1ccc(C2CC(=O)C3=C(C2)Nc2ccccc2NC3c2cccc(C(F)(F)F)c2)cc1OC (stereo unspecified) | 37% (inactive) |
| CCOc1cccc(C2Nc3ccccc3NC3=C2C(=O)CC(c2ccc(OC)cc2)C3)c1 (stereo unspecified) | 40% (inactive) |
| COc1ccc(C2CC(=O)C3=C(C2)Nc2ccccc2NC3c2cccc(Oc3ccccc3)c2)cc1OC (stereo unspecified) | 39% (inactive) |

Reference: PubChem BioAssay AID1350 (Sanford-Burnham Center for Chemical Genomics, 2008)
